# Test results reported in patent US5387684A, “Isoindazole compound” (The Green Cross Corporation, priority 1992, dated 1995).
# Structures can show the parent of a compound that is named as a salt.
# Biological target: T1, angiotensin II receptor (Rattus norvegicus, UniProt P25095)
# T1 sequence (P25095 1-359): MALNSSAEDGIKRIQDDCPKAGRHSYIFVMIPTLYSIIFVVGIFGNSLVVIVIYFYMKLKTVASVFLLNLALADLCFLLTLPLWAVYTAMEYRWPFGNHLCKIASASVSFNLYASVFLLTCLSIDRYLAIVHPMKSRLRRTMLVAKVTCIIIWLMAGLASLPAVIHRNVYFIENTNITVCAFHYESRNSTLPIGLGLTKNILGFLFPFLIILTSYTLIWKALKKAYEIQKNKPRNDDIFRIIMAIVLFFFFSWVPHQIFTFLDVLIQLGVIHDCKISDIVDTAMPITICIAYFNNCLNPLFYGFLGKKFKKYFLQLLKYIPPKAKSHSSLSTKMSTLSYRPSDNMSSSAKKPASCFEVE
# Assay: Inhibition of binding of angiotensin II to rat smooth muscle cells (125I-AII)
# Details: ^125 I-Tyr^4-angiotensin II, smooth muscle cells from rat aorta, room temperature, 1 hour; read-out: inhibitory action (IC50) on the binding of angiotensin II to the receptor
row,SMILES,IC50
1,"CCCCc1nc(Cl)c(C=O)n1Cc1ccc2nn(-c3ccccc3C(=O)O)cc2c1 [Example 7, 2-butyl-4-chloro-1-[2-(2-carboxyphenyl)-2H-indazol-5-yl]methyl-1H-imidazole-5-carbaldehyde]",130 nM
2,"CCCCc1nc(Cl)c(CO)n1Cc1ccc2nn(-c3ccccc3C(=O)O)c(Br)c2c1 [Example 4, 1-[3-bromo-2-(2-carboxyphenyl)-2H-indazol-5-yl]methyl-2-butyl-4-chloro-5-(hydroxymethyl)-1H-imidazole]",4.3 nM
3,"CCCCc1nc(Cl)c(C=O)n1Cc1ccc2nn(-c3ccccc3C(=O)O)c(Br)c2c1 [Example 6, 2-butyl-4-chloro-1-[3-bromo-2-(2-carboxyphenyl)-2H-indazol-5-yl]methyl-1H-imidazole-5-carbaldehyde]",19 nM
4,"CCCCc1nc(Cl)c(CO)n1Cc1ccc2nn(-c3ccccc3C(=O)O)cc2c1 [Example 5, 2-butyl-4-chloro-1-[2-(2-carboxyphenyl)-2H-indazol-5-yl]methyl-5-(hydroxymethyl)-1H-imidazole]",40 nM
5,CCc1nc2c(C)cc(C)nc2n1Cc1ccc2nn(-c3ccccc3C(=O)O)c(Br)c2c1,2 nM
6,CCCCc1nc2cccnc2n1Cc1ccc2nn(-c3ccccc3C(=O)O)c(Br)c2c1 [sodium salt],6.7 nM
7,"CCCCc1nc(Cl)c(C(=O)O)n1Cc1ccc2nn(-c3ccccc3C(=O)O)c(Br)c2c1 [Example 9, disodium 1-[3-bromo-2-(2-carboxyphenyl)-2H-indazol-5-yl]methyl-2-butyl-4-chloro-1H-imidazole-5-carboxylate]",2.5 nM
8,"CCc1nc2c(C)cc(C)nc2n1Cc1ccc2nn(-c3ccccc3-c3nnn[nH]3)c(Cl)c2c1 [Example 24, 3-{[3-chloro-2-[2-(1H-tetrazol-5-yl)phenyl]-2H-indazol-5-yl]methyl}-2-ethyl-5,7-dimethyl-3H-imidazo[4,5-b]pyridine]",0.8 nM
9,"CCc1nc2c(C)cc(C)nc2n1Cc1ccc2nn(-c3cccc(Cl)c3-c3nnn[nH]3)c(Br)c2c1 [Example 25, 3-{[3-bromo-2-[3-chloro-2-(1H-tetrazol-5-yl)-phenyl]-2H-indazol-5-yl]methyl}-2-ethyl-5,7-dimethyl-3H-imidazo[4,5-b]pyridine]",0.72 nM
10,"CCCCc1nc(C(=O)O)c(Cl)n1Cc1ccc2nn(-c3ccccc3C(=O)O)c(Br)c2c1 [Example 10, disodium 2-butyl-5-chloro-1-[3-bromo-2-(2-carboxyphenyl)-2H-indazol-5-yl]methyl-1H-imidazole-4-carboxylate]",720 nM

# Results, then the compound that gave them:
row,IC50,SMILES
1,1.1 nM,"CCc1nc2c(C)cc(C)nc2n1Cc1ccc2nn(-c3ccccc3-c3nnn[nH]3)c(Br)c2c1 [Example 21, 3-{[3-bromo-2-[2-(1H-tetrazol-5-yl)phenyl]-2H-indazol-5-yl]methyl}-2-ethyl-5,7-dimethyl-3H-imidazo[4,5-b]pyridine]"
2,60 nM,"CCCCc1nc(Cl)c(C=O)n1Cc1ccc2nn(-c3ccccc3-c3nnn[nH]3)c(Br)c2c1 [Example 12, 1-{[3-bromo-2-[2-(1H-tetrazol-5-yl)phenyl]-2H-indazol-5-yl]methyl}-2-butyl-4-chloro-1H-imidazole-5-carbaldehyde]"
3,2.5 nM,"CCCCc1nc(Cl)c(CO)n1Cc1ccc2nn(-c3ccccc3-c3nnn[nH]3)c(Br)c2c1 [Example 14, 1-{[3-bromo-2-[2-(1H-tetrazol-5-yl)phenyl]-2H-indazol-5-yl]methyl}-2-butyl-4-chloro-5-(hydroxymethyl)-1H-imidazole]"
4,1.4 nM,"CCCc1nc2c(C)ccnc2n1Cc1ccc2nn(-c3ccccc3C(=O)O)c(Br)c2c1 [Example 20, 3-[3-bromo-2-(2-carboxyphenyl)-2H-indazol-5-yl]-methyl-7-methyl-2-propyl-3H-imidazo[4,5-b]pyridine]"
5,1.8 nM,"CCCc1nc2c(C)ccnc2n1Cc1ccc2nn(-c3ccccc3-c3nnn[nH]3)c(Br)c2c1 [Example 22, 3-{[3-bromo-2-[2-(1H-tetrazol-5-yl)phenyl]-2H-indazol-5-yl]methyl}-7-methyl-2-propyl-3H-imidazo[4,5-b]pyridine]"
6,3.1 nM,"CCCCc1nc2cccnc2n1Cc1ccc2nn(-c3ccccc3-c3nnn[nH]3)c(Br)c2c1 [Example 23, 3-{[3-bromo-2-[2-(1H-tetrazol-5-yl)phenyl]-2H-indazol-5-yl]methyl}-2-butyl-3H-imidazo[4,5-b]pyridine]"
